In PMC11029812, “Liver-targeted polymeric prodrugs delivered subcutaneously improve tafenoquine therapeutic window for malaria radical cure” (Science Advances, 2024):
Entries after “also recorded” stand apart in the source; their conditions may differ.

Experiments:
G6PD-deficient huRBCs = assay: Hemotoxicity in humanized G6PD deficiency mouse model; assay type: in vivo, human RBCs engrafted in NOD/SCID mice
Method: Following procedures as previously published ([46]), hemotoxicity studies using huRBC engraftments were conducted in mice.
Female (8 to 9 weeks) NOD.CB17-Prkdcscid/J [nonobese diabetic severe combined immunodeficient (NOD/SCID)] mice were purchased from The Jackson Laboratory (Bar Harbor, ME). The animals were housed in a cage maintained in a specific pathogen–free animal facility and were acclimated for 1 week in the facility before initiation of experimental procedures. Sterile food and water were provided ad libitum throughout the study as previously described ([64]). All animal studies were performed under IACUC-approved protocols and adhere to the principles stated in the Guide for the Care and Use of Laboratory Animals ([100]).
Polymer solutions for SC administration were prepared in DPBS at the final dosing concentrations. All drug concentrations were calculated per the free base molecular weights of TQ. The TQ parent compound was administered intragastrically via an intragastric feeder tube. Polymers and vehicle were administered SC in the right flank. TQ, pSVCTQ, and vehicle were given as a single dose on day 0. In this model, the TQ dose studied was 10 mg/kg; pSVCTQ was tested at doses of 2.5, 5.0, or 10 mg/kg TQ equivalent.
The percentage of huRBCs at the end of this period was analyzed by flow cytometry to evaluate glycophorin A (huRBCs) and Ter119 (mouse RBCs) circulating in peripheral blood. […] The G6PD-deficient huRBC NOD/SCID mice were dosed with pSVCTQ or parent drug prepared as described above, with three to four mice per group. On days 4 and 7 following dosing, huRBC levels were assessed again by flow cytometry (glycophorin^+Ter119^−), along with the percentage of murine reticulocytes (CD71^+Ter119) as an additional marker of hemolytic toxicity. Mice were euthanized on day 7 following initiation of treatment.
Microsoft Excel and GraphPad Prism were used throughout the PK analysis to process the data, calculate pharmacokinetic parameters, and yield statistical information. A linear regression model was produced using the least squares fitting method with 1/x^2 scaling for the assay calibrators. […] For the G6PD deficiency model, data analysis was performed using GraphPad Prism (GraphPad Software). […] An F test comparing the two dose-response curves was also run. For all other work, a combination of Microsoft Excel and GraphPad Prism was used.

P. berghei = P. berghei luciferase and blood parasitemia model of causal prophylaxis; assay type: in vivo; conditions: for Mice survived: 31 days, n = 5
Method: Efficacy studies in the P. berghei mouse model of causal prophylaxis were conducted at the Walter Reed Army Institute of Research, Experimental Therapeutics Branch as previously described ([46]).
Luciferase-expressing P. berghei ANKA sporozoites were obtained from laboratory-reared female Anopheles stephens mosquitoes as previously described ([46]). Sporozoites were recovered by the method of Li et al. ([62]) and quantitated using a hemocytometer. Sporozoites isolated from the same batch of mosquitoes were inoculated into mice on the same day to control biological variability in sporozoite preparations. Each animal was inoculated IV in the tail vein with approximately 10,000 sporozoites suspended in 0.1-ml volume on day 0.
Age-matched, 40 young adult (7-week-old) female C57BL/6 albino mice were purchased from Charles River Laboratories (Frederick, MD). On arrival, animals were acclimated for 7 days in quarantine. Mice were housed and maintained at a temperature range of 64° to 79°F, 34 to 68% relative humidity, and a 12-hour light/dark cycle. Food and water were provided ad libitum. Animals were fed a standard rodent maintenance diet. All animal use, care, and handling was conducted under an IACUC-approved animal use protocol in an Association for Assessment and Accreditation for Laboratory Animal Care International (AAALACi)–accredited facility with a Public Health Services Animal Welfare Assurance and in compliance with the Animal Welfare Act and other federal statutes and regulations relating to laboratory animals.
TQ was dissolved at a stock concentration of 1 mg/ml in 25% hydroxy-β-cyclodextrin acidified to pH 5 with acetic acid and diluted in DPBS for final dosing solutions. Polymers for parenteral administration were prepared in DPBS at the final dosing concentrations. All drug concentrations were calculated per the free base molecular weights of TQ. TQ parent compounds were administered intragastrically via an intragastric feeder tube. Vehicle groups (0.1 ml of DPBS) and polymer groups were administered SC in the right flank. Free TQ, vehicle, and polymers were given as a single dose on day −1. In this model, the pSVCTQ doses studied were 5.0, 7.5, or 10 mg/kg TQ equivalent.
Whole-body IVIS imaging of bioluminescence activity from luciferase-expressing P. berghei–infected mice was performed using a PerkinElmer IVIS Spectrum. Mice were evaluated at 24, 48, and 72 hours after sporozoite inoculation to determine liver- and blood-stage malaria infection. Mice received luciferin (150 mg/kg, Gold Biotechnology, St. Louis, MO) intraperitoneally in a maximal volume of 150 μl. Three minutes after luciferin administration, the mice were anesthetized with inhaled isoflurane and positioned ventral side up in the IVIS Spectrum on a 37°C platform. The mice continued to receive isoflurane through nose cone delivery. The camera exposure times used were 1 or 5 min for the 24-, 48-, and 72-hour time points with f-stop = 1, and the large binning setting was chosen. Quantitative analysis of bioluminescence emitted from whole bodies or […] (ROI) were determined by measuring the luminescence signal intensity in photons per second using the ROI settings of the Living Image 3.0 software. The ROI, expressed in total flux of photons, was set to measure the abdominal area at the location of the liver from whole-body imaging ([62]). The data were generally found to fit a normal distribution. Means and SDs of photon measurement were calculated.
On days 5 to 31 after infection, mice were analyzed for blood-stage infections by quantitation of malaria parasites in erythrocytes by flow cytometry. Blood (3 μl) from the mouse tail was collected directly into 0.3 ml of 1% heparinized isotonic buffer (PBS saline). After addition of 1 ml of 0.04% of glutaraldehyde for fixation, the samples were incubated at 4°C for 60 min. Cells were centrifuged at 450g for 5 min. […]

Question: Which “Dose resulting in 50% hemolysis (TD50)” value (G6PD-deficient huRBCs; curve fit of Fig. 4B, single dose, pSVCTQ SC, TQ oral, day 7) does the source give for p(GalNAc-MA-co-SVCTQ-MA) [pSVCTQ] here?
Answer: The value was 11.2 mg/kg.

Question: What about the “Reduction of hemotoxicity compared to oral TQ” value (G6PD-deficient huRBCs; from median effective doses) of the same substance?
Answer: The value was “greater than twofold”.

Question: What about the “Median effective dose (dose that results in 50% huRBC loss by day 7 relative to vehicle control)” value (G6PD-deficient huRBCs; single dose day 0, pSVCTQ SC, TQ oral, A− G6PD-deficient donor) of the same substance?
Answer: The value was 11.4 mg/kg.

Question: What about the Mice survived (P. berghei; 5 mg/kg SC, single dose day −1) of the same substance?
Answer: The Mice survived was 2/5.

Question: What about the Blood parasitemia suppression (P. berghei; 5 mg/kg TQ equivalent SC, single dose day −1) of the same substance?
Answer: Its Blood parasitemia suppression is “partial suppression of parasitemia”.

Question: And the Mice survived (P. berghei; 7.5 mg/kg SC, single dose day −1)?
Answer: The Mice survived was 4/5.

Question: What about the Mice survived (P. berghei; 10 mg/kg SC, single dose day −1) of the same substance?
Answer: The Mice survived was “All mice survived”.

Question: What about the Mice survived (P. berghei; 10 mg/kg SC, single dose day −1, listed as SVCTQ polymer) of the same substance?
Answer: Its Mice survived is 5/5.

Question: And the “Causal prophylaxis (complete parasite suppression)” value (P. berghei; 10 mg/kg TQ equivalent SC, single dose day −1)?
Answer: Its value is 100%.

Question: And the “IVIS signal during days 1 to 3” value (P. berghei; 10 mg/kg single dose day −1, pSVCTQ SC, TQ oral)?
Answer: Its value is “completely suppressed”.

Question: What about the “Activity compared to oral TQ (based on the TQ equivalent dose)” value (P. berghei; P. berghei prophylactic model, single dose day −1) of the same substance?
Answer: Its value is “approximately twofold; also recorded: approximately twice”.
